Key:
[1] = tested on: EMT7 mouse mammary carcinoma cells; experiment: In vivo tumor cell proliferation by 2H2O incorporation over 5 days of chemotherapy; conditions: balb/C mice with EMT7 tumors, 125 mg/kg Gem every other day or 500 mg/kg HU daily
Protocol: (§1) Female balb/C mice were implanted subcutaneously with approximately 10^6 EMT7 mouse mammary carcinoma cells in matrigel and allowed to reach ca.1500 mm^3. Mice were labeled with 2H2O with an i.p. bolus and treatment with either 125 mg/kg gemcitabine (Gem) or 500 mg/kg HU began. Gem was administered every other day, HU daily. At then end of 5 days tumors were removed, measured, homogenized and DNA was isolated as described, supra. Bone marrow was isolated using standard techniques. Bone marrow DNA was isolated as described, supra. GC/MS analysis was described as carried out, and calculations of RR activity and cell proliferation were carried out for both tumor and bone marrow tissues. Tumor volume was also measured by use of a caliper as is standard in the art.

[2] = tested on: EMT7 mouse mammary carcinoma cells; experiment: Tumor volume by caliper over 5 days of chemotherapy; assay type: in vivo; conditions: balb/C mice with EMT7 tumors, 125 mg/kg Gem every other day or 500 mg/kg HU daily
Protocol: as §1

MCF7 cells = experiment: Cell proliferation in hydroxyurea-treated MCF7 cells (2H2O labeling and coulter counter); assay type: cell-based; conditions: 24 hours, hydroxyurea at various concentrations
[3] = target: T1, ribonucleotide reductase (RR) (Homo sapiens, UniProt P23921+P31350); experiment: RR activity measured by 2H2O in hydroxyurea-treated MCF7 cells; assay type: cell-based; set-up: endogenous in cells; conditions: 24 hours
T1 sequence (P23921 1-792): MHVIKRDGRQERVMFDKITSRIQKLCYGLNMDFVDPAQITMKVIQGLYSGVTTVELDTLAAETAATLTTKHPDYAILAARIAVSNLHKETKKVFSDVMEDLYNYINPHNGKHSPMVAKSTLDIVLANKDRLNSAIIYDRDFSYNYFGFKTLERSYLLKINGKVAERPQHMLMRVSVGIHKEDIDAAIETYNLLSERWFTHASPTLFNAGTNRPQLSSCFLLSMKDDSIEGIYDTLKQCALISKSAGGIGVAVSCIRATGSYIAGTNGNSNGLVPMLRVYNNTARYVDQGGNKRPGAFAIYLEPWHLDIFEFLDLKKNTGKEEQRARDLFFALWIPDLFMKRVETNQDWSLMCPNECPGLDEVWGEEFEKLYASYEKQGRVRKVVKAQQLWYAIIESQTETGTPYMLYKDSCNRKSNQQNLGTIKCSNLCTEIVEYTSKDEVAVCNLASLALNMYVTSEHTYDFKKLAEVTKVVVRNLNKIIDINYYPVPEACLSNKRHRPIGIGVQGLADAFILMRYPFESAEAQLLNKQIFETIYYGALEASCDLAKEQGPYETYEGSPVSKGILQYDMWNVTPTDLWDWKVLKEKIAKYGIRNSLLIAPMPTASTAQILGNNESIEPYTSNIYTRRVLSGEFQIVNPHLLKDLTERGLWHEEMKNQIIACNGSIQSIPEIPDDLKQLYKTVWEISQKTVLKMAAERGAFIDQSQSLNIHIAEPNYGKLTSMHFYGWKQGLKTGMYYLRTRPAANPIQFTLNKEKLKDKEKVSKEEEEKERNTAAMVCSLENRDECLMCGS
T1 sequence (P31350 1-389): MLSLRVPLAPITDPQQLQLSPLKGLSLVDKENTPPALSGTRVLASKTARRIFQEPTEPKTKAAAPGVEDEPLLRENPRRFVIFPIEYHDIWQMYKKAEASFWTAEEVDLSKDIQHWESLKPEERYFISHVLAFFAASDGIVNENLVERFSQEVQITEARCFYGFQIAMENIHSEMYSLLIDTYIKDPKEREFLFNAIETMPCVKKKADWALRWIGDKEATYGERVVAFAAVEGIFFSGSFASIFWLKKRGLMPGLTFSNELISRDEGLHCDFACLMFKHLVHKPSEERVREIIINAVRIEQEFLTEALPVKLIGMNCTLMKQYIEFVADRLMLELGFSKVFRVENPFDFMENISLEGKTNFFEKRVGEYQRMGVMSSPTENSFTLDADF
Protocol: Ribonucleotide reductase catalyzes the conversion of ribonucleotides to deoxyribonucleotides (FIG. 1A). A unique feature of RR is the response of nucleoside metabolism to its inhibition. When RR is inhibited, the activity of thymidine kinase is increased. […] Traditionally, this effect is assayed in vitro by measuring the increase in the concentration of free TTP pool relative to the other deoxynucleotides. […] In a preferred embodiment of the invention, once the isotopic enrichment of dA and dT have been determined (as described, supra) for both a test and control subject or sample, the ratio of dT enrichment to dA enrichment is compared.
Mammary carcinoma cells (MCF7) were grown under standard conditions to approximately 50% confluence. […] Cells continued to grow for 24 hours after which they were harvested, counted by coulter counter, and frozen.
Genomic DNA was isolated from frozen cells using a Qiagen Tissue Prep Kit according to the manufacturer's instructions. DNA digestion was performed after measuring the ratio of 260/280 to quantify the amount of isolated DNA. […]
HPLC Purification: dA and T were then isolated at room temperature by using a Waters HPLC system coupled with a UV detector. […] Normal nucleosides (dC, dG, dT, dA) were detected by UV absorption at 254 nm. […]

[4] = target: T2, ribonucleotide reductase (RR) (Mus musculus, UniProt P07742+P11157); experiment: RR inhibition in tumor and bone marrow of EMT7 tumor-bearing mice over 5 days of chemotherapy; assay type: in vivo; conditions: balb/C mice with EMT7 tumors, 125 mg/kg Gem every other day or 500 mg/kg HU daily, relative to untreated (control) mice
T2 construct: from tissue; host or cells: EMT7 mouse mammary carcinoma tumour and bone marrow of female balb/C mice
T2 sequence (P07742 1-792): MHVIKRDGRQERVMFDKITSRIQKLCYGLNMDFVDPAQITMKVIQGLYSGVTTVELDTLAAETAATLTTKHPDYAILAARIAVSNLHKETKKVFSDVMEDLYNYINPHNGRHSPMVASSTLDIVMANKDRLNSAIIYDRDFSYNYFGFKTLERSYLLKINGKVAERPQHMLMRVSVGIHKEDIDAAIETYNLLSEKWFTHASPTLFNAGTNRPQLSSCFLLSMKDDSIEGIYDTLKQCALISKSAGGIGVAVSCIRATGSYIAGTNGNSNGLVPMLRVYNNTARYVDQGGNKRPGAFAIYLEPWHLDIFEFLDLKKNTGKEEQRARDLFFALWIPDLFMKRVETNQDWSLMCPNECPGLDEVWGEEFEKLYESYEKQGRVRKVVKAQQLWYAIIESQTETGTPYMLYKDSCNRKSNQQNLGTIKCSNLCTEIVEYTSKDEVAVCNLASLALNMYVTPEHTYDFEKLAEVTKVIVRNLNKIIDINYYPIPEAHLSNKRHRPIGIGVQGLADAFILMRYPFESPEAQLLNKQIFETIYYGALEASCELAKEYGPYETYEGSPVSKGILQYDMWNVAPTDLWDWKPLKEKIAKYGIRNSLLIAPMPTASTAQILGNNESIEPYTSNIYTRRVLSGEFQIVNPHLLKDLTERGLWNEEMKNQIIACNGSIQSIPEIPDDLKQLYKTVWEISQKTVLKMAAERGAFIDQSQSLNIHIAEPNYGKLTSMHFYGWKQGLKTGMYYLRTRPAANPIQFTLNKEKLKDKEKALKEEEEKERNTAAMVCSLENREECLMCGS
T2 sequence (P11157 1-390): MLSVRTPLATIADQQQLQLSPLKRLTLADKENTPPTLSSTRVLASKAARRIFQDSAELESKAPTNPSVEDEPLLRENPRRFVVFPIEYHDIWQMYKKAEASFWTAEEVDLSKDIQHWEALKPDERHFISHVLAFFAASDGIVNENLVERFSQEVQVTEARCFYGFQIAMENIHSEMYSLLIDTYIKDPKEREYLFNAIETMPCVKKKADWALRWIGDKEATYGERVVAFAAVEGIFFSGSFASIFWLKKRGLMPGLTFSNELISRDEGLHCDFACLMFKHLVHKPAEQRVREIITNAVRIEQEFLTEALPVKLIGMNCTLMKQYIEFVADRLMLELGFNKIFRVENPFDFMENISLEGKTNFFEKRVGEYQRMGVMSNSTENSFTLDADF
Protocol: Female balb/C mice were implanted subcutaneously with approximately 10^6 EMT7 mouse mammary carcinoma cells in matrigel and allowed to reach ca.1500 mm^3.
as §1, with “Mice” for “Female balb/C mice were implanted subcutaneously with approximately 10^6 EMT7 mouse mammary carcinoma cells in matrigel and allowed to reach ca.1500 mm^3. Mice”

SW1573 cells = experiment: Cell proliferation measured by 2H2O in SW1573 cells; assay type: cell-based; conditions: 24 hours
Protocol: (§2) Non-small cell lung carcinoma cells (SW1573) were grown under standard conditions to approximately 50% confluence. Media was removed and replaced with media containing 4% ^2H2O, 1 µM dN's and hydroxyurea or gemcitabine at various concentrations. Cells were grown for and additional 24 hours after which they were harvested and frozen. Cell proliferation and RR inhibition was performed as described, supra.

[5] = target: T1, ribonucleotide reductase (RR); experiment: RR activity measured by 2H2O in SW1573 cells; assay type: cell-based; set-up: endogenous in cells; host or cells: SW1573 non-small cell lung carcinoma cells; conditions: 24 hours; for RR activity, % of control: level reached with increasing doses
Protocol: Ribonucleotide reductase catalyzes the conversion of ribonucleotides to deoxyribonucleotides (FIG. 1A). A unique feature of RR is the response of nucleoside metabolism to its inhibition. When RR is inhibited, the activity of thymidine kinase is increased. […] Traditionally, this effect is assayed in vitro by measuring the increase in the concentration of free TTP pool relative to the other deoxynucleotides. […] The salvage of deoxyadenosine is very low in normal cells allowing the measurement of DNA synthesis from the incorporation of de novo deoxyadenosine (see supra); furthermore since dAk activity is not affected by RR inhibition it can be used as the denominator for calculating fractional de novo thymidine synthesis. The relative inhibition of RR can be inferred from the reduction in de novo thymidine incorporation relative to dA into DNA. In a preferred embodiment of the invention, once the isotopic enrichment of dA and dT have been determined (as described, supra) for both a test and control subject or sample, the ratio of dT enrichment to dA enrichment is compared.
as §2

Row | Compound | tumor cell proliferation [1] | tumor volume [2] | rate of cell proliferation (MCF7 cells) | RR activity ([3]; doses 50 μM HU and above) | activity of RR ([3]; hydroxyurea at various concentrations) | bone marrow cell RR activity [4] | tumor cell RR activity [4] | concentration at which inhibition of cell proliferation was evident (SW1573 cells) [µM] | concentration at which apparent maximal RR inhibition occurred [5] | inhibition at 6 µM [5] [%] | RR activity, % of control [5] | inhibition at 0.0016 µM ([5]; 1.6 nM) [%] | RR activity ([5]; 48 nM)
1 | NC(=O)NO [hydroxyurea] | effect of HU and Gem on cell proliferation is observed | no change | reduces the rate of cell proliferation | dramatically inhibited | reduces | inhibited | inhibited | 20 | 6 µM | 80 | −20 % of control |  | 
2 | Nc1ccn([C@@H]2O[C@H](CO)[C@@H](O)C2(F)F)c(=O)n1 [gemcitabine] | effect of HU and Gem on cell proliferation is observed | no change |  |  |  | inhibited | inhibited |  |  |  | ~0 % of control | 70 | nearly abolishes

Reference: patent US20050255509A1, “In vivo measurement of the relative fluxes through ribonucleotide reductase vs. deoxyribonucleoside pathways using isotopes” (KineMed, Inc., priority 2004, published 2005)
